Assay results: patent publication US9814787B2, “Luciferin amides” (University of Massachusetts, priority 2013, dated 2017)

Test system: FVB mice expressing luciferase in brain tissue
Assay: In vivo bioluminescence imaging in brains of FVB mice injected with AAV9-luc+ in the striatum
Settings: for light emission in brains of live mice (qualitative): mouse, in vivo
Procedure: FVB mice were injected with AAV9-luc+ in the brain striatum. Bioluminescence assays were performed approximately nine months after AAV injection. Each luciferin amide was diluted into PBS to the indicated concentration from a 50 mM DMSO stock solution and filtered (0.22 μm) prior to intraperitoneally injection (0.1 mL per mouse). Mice were anesthetized with isoflurane (2% in 1 L/min oxygen) and images acquired on a Xenogen IVIS 100 imaging system and analyzed with Living Image software.
Certain luciferin amides described herein were tested to determine whether they would image well in live mice. For these studies, FVB mice were injected with adeno-associated virus 9 (AAV9)-luciferase constructs into the brain striatum.
Bioluminescence imaging (BLI) in the brain is more challenging than imaging in the rest of the organism, in part because a luciferase substrate (i.e., a luciferin) must cross the blood-brain barrier. Therefore, the ability of a synthetic luciferin (i.e., Compound 9's corresponding luciferin (CycLuc1)) to allow bioluminescence imaging in these mice, as compared to the native firefly luciferase substrate (i.e., D-luciferin) was first tested. Specifically, each substrate was injected intraperitoneally (IP) in PBS at a volume of 0.1 mL, D-luciferin being at a concentration of 100 mM and CycLuc1 being at a concentration of 5 mM. […] CycLuc1 was then injected at a 320-fold lower dose (0.06 mL of 0.5 mM) than D-luciferin.
Specifically, Compound 9 (i.e., CycLuc1 amide) was injected at 0.5 mM in 0.5% DMSO/PBS (0.06 mL).
In this figure, mice in the top row were treated with luciferin amides in the amounts indicated in the figure, and the mice in the bottom row were the same mice that were imaged one day later using a standard dose of D-luciferin.

Row | Molecule | light emission in brains of live mice (qualitative) | further results
1 | CC(C)CNc1ccc2nc(C3=N[C@@H](C(N)=O)CS3)sc2c1 [Compound 3, (S)-4,5-dihydro-2-(6-(isobutylamino)benzo[d]-thiazol-2-yl)thiazole-4-carboxamide] | relatively strong light emission | 
2 | NC(=O)[C@H]1CSC(c2nc3ccc(NCCCO)cc3s2)=N1 [Compound 4, (S)-2-(6-(3-hydroxypropylamino)benzo[d]-thiazol-2-yl)-4,5-dihydrothiazole-4-carboxamide] | relatively weak light emission | 
3 | CCNc1ccc2nc(C3=N[C@@H](C(N)=O)CS3)sc2c1 [Compound 6, (S)-2-(6-(ethylamino)benzo[d]thiazol-2-yl)-4,5-dihydrothiazole-4-carboxamide] | relatively strong light emission | 
4 | CCNc1ccc2nc(C3=N[C@@H](C(=O)NC)CS3)sc2c1 [Compound 7, (S)-2-(6-(ethylamino)benzo[d]thiazol-2-yl)-4,5-dihydro-N-methylthiazole-4-carboxamide] | relatively strong light emission | 
5 | NC(=O)[C@H]1CSC(c2nc3cc4c(cc3s2)NCCC4)=N1 [Compound 14, (S)-2-(5,6,7,8-tetrahydrothiazolo[4,5-g]quinolin-2-yl)-4,5-dihydrothiazole-4-carboxamide] |  | Photon flux after treatment with luciferin analogs (100 μM): 1.43E+07 p/s; improved signal over 100 mM D-luciferin (0.1 mM): more than 10 fold
6 | O=C(O)[C@H]1CSC(c2nc3ccc(O)cc3s2)=N1 [D-luciferin, reference compound] |  | Photon flux after treatment with luciferin analogs (100 mM): 1.21E+06 p/s
7 | Me2N-luciferin methyl ester [reference compound] | relatively weak light emission | 
